# Test results taken from patent US8614227B2, “Salt and solvates of a tetrahydroisoquinoline derivative” (Spinifex Pharmaceuticals Pty Ltd, priority 2010, dated 2013).
# Key:
# [1] = HPMC vs gelatin capsules of amorphous Compound 2: potency, purity, water uptake after 1 week; type: physicochemical
# Method: Twenty capsules of both hydroxypropyl methylcellulose (HPMC, also known as Hypromellose) and gelatin were filled with 25±1 mg of amorphous Compound 2 to determine if the lower water content found in HPMC capsules would retard the water uptake of the compound. Samples of Compound 2 in both capsule types were placed at 25° C./60% RH and 40° C./75% RH for 1 week. The samples were analyzed for water content, potency, and % purity (% area) at t=0 and t=1 week.
# 20 transparent size 00 HPMC capsules and 20 transparent size 00 gelatin capsules were hand filled with API.
# Each capsules was filled with 25±1 mg of API.
# The two capsule types were both separated into two 30 cc HDPE bottles with caps and placed at both 25° C./60% RH and 40° C./75% RH for 1 week.
# For the t=0 time point, Compound 2 was analyzed for water content, potency, and % purity (% area).
# Two samples of Compound 2 were taken at t=0 for water content. The first sample was taken after the HPMC capsules had been filled and the second sample was taken after the gelatin capsules had been filled. This sampling procedure was done to offset the water uptake that took place while the capsules were being filled.
# 76.17 mg of Compound 2 was weighed directly into a 100-mL volumetric flask.
# The flask was diluted to volume with ACN and inverted to mix.
# A 1 mL aliquot was transferred directly into an HPLC vial for analysis.
# [2] = Compound 2 solution stability, one week (HPLC % purity); type: physicochemical; details: for Δ% Purity at 5° C. / Δ% Purity at 25° C./60% RH: 1 week; for Initial % Purity: t=0
# Method: The above analysis was taken as t=0 and the samples were then divided in two and one of each sample was stored at 5° C. for one week and the other of each sample was stored at 25° C./60% relative humidity (RH) for one week.
# After one week, the samples were allowed to equilibrate to room temperature and if required (H2O and pH 7-9 samples stored at 5° C.) refiltered to remove precipitate.
# The samples were reanalyzed by HPLC.
# [3] = Gelatin Capsules, 25° C., t = 1 week
# [4] = Gelatin Capsules, 40° C., t = 1 week
# [5] = HPMC Capsules, 25° C., t = 1 week
# [6] = HPMC Capsules, 40° C., t = 1 week
smiles,measurement,setting,value
"COc1ccc2c(c1OCc1ccccc1)C[C@@H](C(=O)[O-])N(C(=O)C(c1ccccc1)c1ccccc1)C2.[Na+] [Compound 2, sodium salt of (S)-2-(diphenylacetyl)-1,2,3,4-tetrahydro-6-methoxy-5-(phenylmethoxy)-3-isoquinoline carboxylic acid]",% Potency,[1]; [3],90.1%
same,% a/a Purity,[1]; [3],98.95 % a/a
same,Δ% a/a Purity,[1]; [3],0.00 % a/a
same,% Potency,[1]; [4],90.8%
same,% a/a Purity,[1]; [4],98.88 % a/a
same,Δ% a/a Purity,[1]; [4],−0.07 % a/a
same,% Potency,[1]; [5],90.2%
same,% a/a Purity,[1]; [5],98.95 % a/a
same,Δ% a/a Purity,[1]; [5],0.00 % a/a
same,% Potency,[1]; [6],89.8%
same,% a/a Purity,[1]; [6],98.74 % a/a
same,Δ% a/a Purity,[1]; [6],−0.21 % a/a
same,% Potency,[1]; Sample t = 0,86.3%
same,% a/a Purity,[1]; Sample t = 0,98.95 % a/a
same,potency and % purity (% area) after 1 week,"[1]; all conditions tested (HPMC and gelatin capsules, 25° C./60% RH and 40° C./75% RH)",unchanged
same,slowing of the uptake of water by HPMC capsules relative to gelatin,"[1]; stored at 40° C./75% RH, 1 week",3.74%
same,t = 1 week % Purity at 5° C.,[2]; pH 6 buffer solution,87.02%
same,t = 1 week % Purity at 25° C./60% RH,[2]; pH 6 buffer solution,88.98%
same,Δ% Purity at 5° C.,[2]; pH 6 buffer solution,−1.35%
same,Δ% Purity at 25° C./60% RH,[2]; pH 6 buffer solution,+0.61%
same,Initial % Purity,[2]; pH 6 buffer solution,88.37%
same,t = 1 week % Purity at 5° C.,[2]; pH 7 buffer solution,74.27%
same,t = 1 week % Purity at 25° C./60% RH,[2]; pH 7 buffer solution,76.52%
same,Δ% Purity at 5° C.,[2]; pH 7 buffer solution,−1.85%
same,Δ% Purity at 25° C./60% RH,[2]; pH 7 buffer solution,+0.40%
same,Initial % Purity,[2]; pH 7 buffer solution,76.12%
same,t = 1 week % Purity at 5° C.,[2]; pH 8 buffer solution,81.45%
same,t = 1 week % Purity at 25° C./60% RH,[2]; pH 8 buffer solution,86.70%
same,Δ% Purity at 5° C.,[2]; pH 8 buffer solution,−4.09%
same,Δ% Purity at 25° C./60% RH,[2]; pH 8 buffer solution,+1.16%
same,Initial % Purity,[2]; pH 8 buffer solution,85.54%
same,t = 1 week % Purity at 5° C.,[2]; pH 9 buffer solution,89.17%
same,t = 1 week % Purity at 25° C./60% RH,[2]; pH 9 buffer solution,91.60%
same,Δ% Purity at 5° C.,[2]; pH 9 buffer solution,−2.07%
same,Δ% Purity at 25° C./60% RH,[2]; pH 9 buffer solution,+0.36%
same,Initial % Purity,[2]; pH 9 buffer solution,91.24%
same,t = 1 week % Purity at 5° C.,[2]; solution in ACN,97.50%
same,t = 1 week % Purity at 25° C./60% RH,[2]; solution in ACN,97.46%
same,Δ% Purity at 5° C.,[2]; solution in ACN,0.00%
same,Δ% Purity at 25° C./60% RH,[2]; solution in ACN,−0.04%
same,Initial % Purity,[2]; solution in ACN,97.50%
same,t = 1 week % Purity at 5° C.,[2]; solution in H2O,94.66%
same,t = 1 week % Purity at 25° C./60% RH,[2]; solution in H2O,95.67%
same,Δ% Purity at 5° C.,[2]; solution in H2O,−0.92%
same,Δ% Purity at 25° C./60% RH,[2]; solution in H2O,+0.09%
same,Initial % Purity,[2]; solution in H2O,95.58%
same,t = 1 week % Purity at 5° C.,[2]; solution in IPA,89.59%
same,t = 1 week % Purity at 25° C./60% RH,[2]; solution in IPA,90.51%
same,Δ% Purity at 5° C.,[2]; solution in IPA,+0.31%
same,Δ% Purity at 25° C./60% RH,[2]; solution in IPA,+1.23%
same,Initial % Purity,[2]; solution in IPA,89.28%
same,t = 1 week % Purity at 5° C.,[2]; solution in MeOH,97.52%
same,t = 1 week % Purity at 25° C./60% RH,[2]; solution in MeOH,97.39%
same,Δ% Purity at 5° C.,[2]; solution in MeOH,+0.13%
same,Δ% Purity at 25° C./60% RH,[2]; solution in MeOH,0.00%
same,Initial % Purity,[2]; solution in MeOH,97.39%
